From PubChem BioAssay AID256 (DTP/NCI, 2004) come the findings set out here.

Several values for one entry are separate records, joined by “and”; a condition that tells them apart may be missing. Equal values may be shown once. Toxic doses and inconclusive results are not listed. Non-standard residues stand in square brackets, D forms with d. Residues, ends and D or L forms follow the SMILES beside them. ξ: configuration not given here. *: point of attachment. Cbz = O=C(OCc1ccccc1)*; ξP = O=C(O)C1CCCN1

The assay deals with CD2F1 mice, L1210 leukemia ip, survival T/C. The experiment in a line: NCI In Vivo Anticancer Drug Screen. Data for tumor model L1210 Leukemia (intraperitoneal) in CD2F1 (CDF1) mice. The settings on record: higher = longer survival. The essentials: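 Each value reflects a quotient of treated over vehicle control outcomes in mice with a transplanted tumor.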
[1] abbreviates: endpoint: mean survival time, dose: 25.0 mg/kg/injection, schedule: Q04DX003 (ip), vehicle: saline with Tween-80.
Setting [2] is: endpoint: mean survival time, dose: 50.0 mg/kg/injection, schedule: Q04DX003 (ip), vehicle: saline with Tween-80.
Setting [3] is: endpoint: mean survival time, dose: 100.0 mg/kg/injection, schedule: Q04DX003 (ip), vehicle: saline with Tween-80.
Setting [4] is: endpoint: mean survival time, dose: 100.0 mg/kg/injection, schedule: Q01DX001 (ip), vehicle: Klucel (hydroxypropylcellulose) (HPC).
Where [5] appears, read: endpoint: mean survival time, dose: 200.0 mg/kg/injection, schedule: Q01DX001 (ip), vehicle: Klucel (hydroxypropylcellulose) (HPC).
The mark [6] stands for this setting: endpoint: mean survival time, dose: 400.0 mg/kg/injection, schedule: Q01DX001 (ip), vehicle: Klucel (hydroxypropylcellulose) (HPC).
[7] abbreviates: endpoint: mean survival time, dose: 12.5 mg/kg/injection, schedule: Q04DX003 (ip), vehicle: saline with Tween-80.
The mark [8] stands for this setting: endpoint: mean survival time, dose: 200.0 mg/kg/injection, schedule: Q04DX003 (ip), vehicle: saline with Tween-80.
[9] abbreviates: endpoint: mean survival time, dose: 100.0 mg/kg/injection, schedule: Q04DX003 (ip), vehicle: saline.
Setting [10] is: endpoint: mean survival time, dose: 200.0 mg/kg/injection, schedule: Q04DX003 (ip), vehicle: saline.
The mark [11] stands for this setting: endpoint: mean survival time, dose: 400.0 mg/kg/injection, schedule: Q04DX003 (ip), vehicle: saline.
[12] abbreviates: endpoint: mean survival time, dose: 400.0 mg/kg/injection, schedule: Q04DX003 (ip), vehicle: saline with Tween-80.

As for `CCOC(=O)/C=C/C(=O)N1CCN(C(=O)/C=C/C(=O)OCC)C(C)C1` (stereo unspecified), the T/C (endpoint: median survival time, dose: 25.0 mg/kg/injection, schedule: Q01DX009 (ip), vehicle: Klucel (hydroxypropylcellulose) (HPC)) was 106 % of control; the T/C (endpoint: median survival time, dose: 50.0 mg/kg/injection, schedule: Q01DX009 (ip), vehicle: Klucel (hydroxypropylcellulose) (HPC)) was 110 % of control; the T/C (endpoint: median survival time, dose: 100.0 mg/kg/injection, schedule: Q01DX009 (ip), vehicle: Klucel (hydroxypropylcellulose) (HPC)) is 109 % of control; the T/C (endpoint: median survival time, dose: 200.0 mg/kg/injection, schedule: Q01DX009 (ip), vehicle: Klucel (hydroxypropylcellulose) (HPC)) was 109 % of control; the T/C (endpoint: median survival time, dose: 400.0 mg/kg/injection, schedule: Q01DX009 (ip), vehicle: Klucel (hydroxypropylcellulose) (HPC)) is 109 % of control.

Take `O=C(CSC1=NCCN1)c1ccc([N+](=O)[O-])cc1`: the T/C was 94 % of control under setting [1], 93 % of control under setting [2] and 93 % of control under setting [3].

On to `CCOC(=O)CCC(NC(=O)c1ccc(N(Cc2ccccc2)Cc2cnc3nc(N)nc(N)c3n2)cc1)C(=O)OCC` (stereo unspecified), for which the T/C under setting [4] was 87 % of control, the T/C under setting [5] was 94 % of control and the T/C under setting [6] was 97 % of control.

For `[Cl][Pt][Cl].[NH-]C(CC(N)=O)C(=O)O` (stereo unspecified), the T/C is 109 % of control (endpoint: median survival time, dose: 3.12 mg/kg/injection, schedule: Q04DX003 (ip), vehicle: water); 108 % of control (endpoint: median survival time, dose: 6.25 mg/kg/injection, schedule: Q04DX003 (ip), vehicle: water); 101 % of control (endpoint: median survival time, dose: 12.5 mg/kg/injection, schedule: Q04DX003 (ip), vehicle: water); 106 % of control (endpoint: median survival time, dose: 25.0 mg/kg/injection, schedule: Q04DX003 (ip), vehicle: water); 118 % of control (endpoint: median survival time, dose: 50.0 mg/kg/injection, schedule: Q04DX003 (ip), vehicle: water); 110 % of control (endpoint: median survival time, dose: 100.0 mg/kg/injection, schedule: Q04DX003 (ip), vehicle: water).

Consider `C1CCCCCC2=C(CCCC1)CCCO2`, for which the T/C (endpoint: mean survival time, dose: 6.25 mg/kg/injection, schedule: Q04DX003 (ip), vehicle: saline with Tween-80) is 91 % of control; the T/C under setting [7] was 91 % of control; the T/C under setting [1] was 86 % of control; the T/C under setting [2] was 89 % of control; the T/C under setting [3] was 94 % of control; the T/C under setting [8] is 94 % of control.

As to `O=C1C(CO)=C[C@@H](O)[C@H]2O[C@@H]12`, the T/C was 100 % of control under setting [9], 102 % of control under setting [10] and 102 % of control under setting [11].

With `c1ccc2c(NC3=NCCO3)c3ccccc3nc2c1`, the T/C under setting [7] is 93 % of control and the T/C under setting [1] is 96 % of control.

In the case of `O=C(CNC(=O)OCc1ccccc1)NCC(=O)N1CCCC1C(=O)O` (stereo not drawn) (Cbz-Gly-Gly-[ξP]-OH), the T/C under setting [9] was 98 % of control, the T/C under setting [10] was 96 % of control and the T/C under setting [11] was 101 % of control.

Take `O=S(=O)(Nc1cc(S(=O)(=O)c2ccccc2)c(O)c2ccccc12)c1ccccc1`: the T/C was 96 % of control under setting [3], 86 % of control under setting [8] and 91 % of control under setting [12].

As to `CC(O)CC(C)(C)S(=O)(=O)Cc1ccccc1` (stereo unspecified), the T/C under setting [4] was 101 % of control, the T/C under setting [5] is 86 % of control and the T/C under setting [6] was 93 % of control.

For `O=C(/C=C/C(=O)OCCCl)OCCCl`, the T/C is 104 % of control under setting [3] and 96 % of control under setting [8].

`CC(NNC(=S)N(C)C1CCCCC1)c1cc2ccccc2cn1` (stereo unspecified): the T/C is, setting by setting: (endpoint: median survival time, dose: 12.5 mg/kg/injection, schedule: Q01DX005 (ip), vehicle: saline with Tween-80) 103 % of control; (endpoint: median survival time, dose: 12.5 mg/kg/injection, schedule: Q01DX005 (ip), vehicle: saline) 97 % of control; (endpoint: median survival time, dose: 25.0 mg/kg/injection, schedule: Q01DX005 (ip), vehicle: saline with Tween-80) 120 % of control; (endpoint: median survival time, dose: 25.0 mg/kg/injection, schedule: Q01DX005 (ip), vehicle: saline) 102 % of control and 109 % of control; (endpoint: median survival time, dose: 50.0 mg/kg/injection, schedule: Q01DX005 (ip), vehicle: saline with Tween-80) 90 % of control; (endpoint: median survival time, dose: 50.0 mg/kg/injection, schedule: Q01DX005 (ip), vehicle: saline) 113 % of control and 114 % of control.

As to `Nc1ncn(C2CC(O)C(CO)O2)c(=O)n1` (stereo unspecified), the T/C reads like this: (endpoint: mean survival time, dose: 0.12 mg/kg/injection, schedule: Q01DX009 (ip), vehicle: saline) 160 % of control and 175 % of control; (endpoint: mean survival time, dose: 0.25 mg/kg/injection, schedule: Q01DX009 (ip), vehicle: Klucel (hydroxypropylcellulose) (HPC)) 195 % of control; (endpoint: mean survival time, dose: 0.25 mg/kg/injection, schedule: Q01DX009 (ip), vehicle: saline) 193 % of control and 221 % of control; (endpoint: mean survival time, dose: 0.5 mg/kg/injection, schedule: Q01DX009 (ip), vehicle: Klucel (hydroxypropylcellulose) (HPC)) 219 % of control; (endpoint: mean survival time, dose: 0.5 mg/kg/injection, schedule: Q01DX009 (ip), vehicle: saline) 229 % of control and 258 % of control; (endpoint: mean survival time, dose: 1.0 mg/kg/injection, schedule: Q01DX009 (ip), vehicle: Klucel (hydroxypropylcellulose) (HPC)) 227 % of control. Further, the T/C (endpoint: mean survival time, dose: 1.0 mg/kg/injection, schedule: Q01DX009 (ip), vehicle: saline) is 258 % of control and 296 % of control; the T/C (endpoint: mean survival time, dose: 4.0 mg/kg/injection, schedule: Q01DX009 (ip), vehicle: Klucel (hydroxypropylcellulose) (HPC)) was 113 % of control; the T/C (endpoint: mean survival time, dose: 4.0 mg/kg/injection, schedule: Q01DX009 (ip), vehicle: saline) is 121 % of control; the T/C (endpoint: mean survival time, dose: 8.0 mg/kg/injection, schedule: Q01DX009 (ip), vehicle: Klucel (hydroxypropylcellulose) (HPC)) was 98 % of control; the T/C (endpoint: median survival time, dose: 0.25 mg/kg/injection, schedule: Q01DX009 (ip), vehicle: saline) is 211 % of control; the T/C (endpoint: median survival time, dose: 0.5 mg/kg/injection, schedule: Q01DX009 (ip), vehicle: saline) was 247 % of control. In addition, the T/C (endpoint: median survival time, dose: 1.0 mg/kg/injection, schedule: Q01DX009 (ip), vehicle: saline) is 297 % of control and the T/C (endpoint: median survival time, dose: 8.0 mg/kg/injection, schedule: Q01DX009 (ip), vehicle: saline) was 117 % of control.

In the case of `CC1CC(C)(C)NC(c2ccccc2)O1` (stereo unspecified), the T/C was 94 % of control under setting [3], 94 % of control under setting [8] and 102 % of control under setting [12].

In the case of `C=CCN1CCCC1=O`, the T/C reads like this: (endpoint: mean survival time, dose: 100.0 mg/kg/injection, schedule: Q01DX009 (ip), vehicle: saline with Tween-80) 100 % of control; (endpoint: mean survival time, dose: 200.0 mg/kg/injection, schedule: Q01DX009 (ip), vehicle: saline with Tween-80) 102 % of control; (endpoint: mean survival time, dose: 400.0 mg/kg/injection, schedule: Q01DX009 (ip), vehicle: saline with Tween-80) 102 % of control.

`Cc1ncc(C[P+](c2ccccc2)(c2ccccc2)c2ccccc2)c2c1OC(C)(C)OC2`: the T/C (endpoint: mean survival time, dose: 75.0 mg/kg/injection, schedule: Q01DX001 (ip), vehicle: saline) was 103 % of control and the T/C (endpoint: mean survival time, dose: 150.0 mg/kg/injection, schedule: Q01DX001 (ip), vehicle: saline) is 112 % of control.

Regarding `CC(C)(C)C1CCC(S(=O)c2ccccc2)CC1` (stereo unspecified), the T/C (endpoint: mean survival time, dose: 100.0 mg/kg/injection, schedule: Q01DX001 (ip), vehicle: saline with Tween-80) is 105 % of control; the T/C (endpoint: mean survival time, dose: 100.0 mg/kg/injection, schedule: Q04DX002 (ip), vehicle: saline with Tween-80) was 90 % of control; the T/C (endpoint: mean survival time, dose: 200.0 mg/kg/injection, schedule: Q01DX001 (ip), vehicle: saline with Tween-80) is 100 % of control; the T/C (endpoint: mean survival time, dose: 200.0 mg/kg/injection, schedule: Q04DX002 (ip), vehicle: saline with Tween-80) was 93 % of control; the T/C (endpoint: mean survival time, dose: 400.0 mg/kg/injection, schedule: Q01DX001 (ip), vehicle: saline with Tween-80) is 103 % of control; the T/C (endpoint: mean survival time, dose: 400.0 mg/kg/injection, schedule: Q04DX002 (ip), vehicle: saline with Tween-80) was 93 % of control.

For the compound `O=C(O)c1cc(Br)c(O)cc1O`, the T/C reads like this: under setting [3], 97 % of control; under setting [8], 97 % of control; under setting [12], 87 % of control.

As for `Cc1ccc(Sc2ncnc3c2ncn3C2OC(CO)C(O)C2O)cc1` (stereo unspecified), the T/C (endpoint: mean survival time, dose: 12.5 mg/kg/injection, schedule: Q01DX005 (ip), vehicle: distilled water + Tween-80) was 96 % of control; the T/C (endpoint: mean survival time, dose: 25.0 mg/kg/injection, schedule: Q01DX005 (ip), vehicle: distilled water + Tween-80) was 90 % of control; the T/C (endpoint: mean survival time, dose: 50.0 mg/kg/injection, schedule: Q01DX005 (ip), vehicle: distilled water + Tween-80) is 94 % of control; the T/C (endpoint: mean survival time, dose: 100.0 mg/kg/injection, schedule: Q01DX005 (ip), vehicle: distilled water + Tween-80) was 90 % of control; the T/C (endpoint: mean survival time, dose: 200.0 mg/kg/injection, schedule: Q01DX005 (ip), vehicle: distilled water + Tween-80) was 94 % of control.
